Results published in ChEMBL document CHEMBL1240444, “Aconitum and Delphinium alkaloids of curare-like activity. QSAR analysis and molecular docking of alkaloids into AChBP” (Eur J Med Chem, 2010).

Columns and labels:
[1] = Selectivity ratio of binding affinity for alpha7 nAChR to alpha4beta2 nAChR
[2] = Selectivity ratio of binding affinity for alpha7 nAChR to muscle nAChR; assay type: tissue-based; details: Muscle tissue
[3] = Selectivity ratio of binding affinity for alpha7 nAChR to alpha3beta2

Molecule `CCN1C[C@]2(COC(=O)c3ccccc3N3C(=O)C[C@H](C)C3=O)CC[C@H](OC)[C@@]34[C@@H]5C[C@H]6[C@H](OC)[C@@H]5[C@](O)(C[C@@H]6OC)[C@](O)([C@@H](OC)[C@H]23)[C@@H]14` has a Ratio [1] of 1000, a Ratio [2] of 10000 and a Ratio [3] of 100.
